Entries after “also recorded” stand apart in the source; their conditions may differ.
Legend:
[1] = tested on: ovariectomized animal model; experiment: Osteoporosis alleviation in ovariectomized animal model, Micro CT of femur; assay type: in vivo, SD female mice
Procedure: To determine the effect of alleviating osteoporosis in an ovariectomized animal model according to administration of CHP, a zinc salt, or a mixture thereof, 20-week-old SD female mice (SLC/Central Experimental Animal Co. Ltd., Seoul, Korea) were purchased and raised under certain conditions (temperature: 22±2° C., relative humidity: 55±10%, light/dark cycle: 12 hours). 7 mice/group were allowed to freely drink water and eat food in a cage, subjected to an adaptation period of 1 week before the experiment, and used in the experiment.
After 6 weeks of the administration of CHP, a zinc salt, or a mixture thereof, the effect of alleviating osteoporosis in an ovariectomized animal model was analyzed using Micro CT. The bone mineral density of ovariectomized animals was measured by bone CT scanning of the 3 mm range at the front side of a 2 mm femoral growth plate using micro-CT (QuantumFX, Perkin Elmer, Massachusetts, USA). In addition, a bone volume fraction (BV/TV, %) was measured. The measurement results of the bone mineral density of the femur are illustrated in FIG. 1, and the bone volume fraction is illustrated in FIG. 2.

MC3T3-E1 cells = experiment: Alkaline phosphatase (ALP) activity / osteogenic differentiation of MC3T3-E1 osteoblasts; assay type: cell-based
Procedure: MC3T3-E1 cells were incubated in MEMα, an ascorbic acid-free medium containing 10% FBS and 1% penicillin/streptomycin, in a 5% CO2 incubator at 37° C. To induce osteogenic differentiation, 10 mM β-glycerophosphate and […] of ascorbic acid was further added to the basal medium composition.
500 μl of 1×10^5 MC3T3-E1 cells were seeded into a 24-well plate and cultured for 24 hours until they reached 100% confluency. […] At this time, in the undifferentiated group, which is a negative control for differentiation, a basal medium was used instead of the differentiation medium. In the positive control treated with hPTH1-34, the medium was replaced with a differentiation medium 6 hours after the treatment. While the medium was replaced every 48 hours, each concentration of CHP and hPTH1-34 was treated for a total of 14 days.
On day 14 of differentiation, the medium was removed, followed by washing once with PBS and fixing in 4% paraformaldehyde (PFA) at room temperature for 5 minutes. 500 μl of a 1-STEP™ NBCT/BCIP solution was added to allow a reaction to occur at room temperature for 1 hour. The reaction product was washed with distilled water, and then dried at room temperature, and the degree of coloring of the cells was observed using a microscope. Subsequently, DMSO was added to each well, followed by shaking, and then absorbance at 525 nm was measured.

O=C1N[C@@H](Cc2cnc[nH]2)C(=O)N2CCC[C@@H]12 [CHP, cyclo-hispro]
bone mineral density of the femur ([1]; 1 mg/L of CHP in drinking water, 6 weeks, micro-CT, compared to the ovariectomized group (FIG. 1)): significant increase
bone volume fraction (BV/TV) ([1]; 1 mg/L of CHP in drinking water, 6 weeks, micro-CT, compared with positive control risedronate (FIG. 2)): restored to a level similar to that of the positive control
effect on bone mineral density and bone volume fraction relative to zinc salt and zinc salt + CHP mixture groups ([1]; CHP alone vs zinc salt-administered group and combined administration group): significantly stronger
bone mineral density of a femur ([1]; CHP alone, ovariectomized animal model, dose not stated (FIG. 1)): significantly increased
bone volume fraction of a femur ([1]; CHP alone, ovariectomized animal model, dose not stated (FIG. 2)): significantly increased
ALP activity (absorbance at 525 nm) (MC3T3-E1 cells; 2 mM CHP, day 14, compared with positive control hPTH1-34 10 nM (FIG. 4)): level similar to that of the positive control; also recorded: same or similar to that of a positive control
osteogenic differentiation (degree of coloring, ALP staining) (MC3T3-E1 cells; 0.5, 1, 2 mM CHP, day 14 of differentiation, compared to negative control (FIG. 3)): remarkably increased degree of coloring; also recorded: osteogenic differentiation and bone modeling were promoted

Reference: US11975041B2, “Composition comprising CHP (cyclo-his pro) for preventing, improving or treating of bone loss related disease” (NovMetaPharma Co., Ltd., priority 2017, dated 2024)
